From patent US6841519B1, “Isoxazoline derivatives and herbicides containing the same as the active ingredient” (Kumiai Chemical Industry Co., Ltd., priority 1999, dated 2005)

Tests used:
Format in all cases: in vivo
[1] = test system: Echinochloa crus-galli (L.) Beauv. var. crusgalli (Ec); assay: Test for herbicidal effect by upland foliage treatment (Test Example 3); conditions: 100 g/10 a active ingredient, examined at 14th day
Summary of the method: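 Potted upland-soil Ec seedlings grown 2 weeks in greenhouse, then foliage-sprayed with water-diluted wettable powder at 100 L per 10 ares, giving 100 g active ingredient per 10 ares. Herbicidal effect scored on a graded standard 14 days after treatment.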

[2] = test system: Echinochloa oryzicola Vasing. (Eo); assay: Test for herbicidal effect by paddy field soil treatment (Test Example 1); conditions: application amount (active ingredient) 100 g/10 a, examined at the 21st day from the treatment, index per Table 40
Summary of the method: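 Eo seeds sown in puddled paddy soil under 3 cm water; next day a water-diluted wettable powder was dropped onto the water surface at 100 g active ingredient per 10 ares. Herbicidal effect scored on a standard scale 21 days after treatment, greenhouse-grown.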

[3] = test system: Setaria viridis (L.) Beauv. (Se); assay: Test for herbicidal effect by upland field soil treatment (Test Example 2), Se
Summary of the method: (§1)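 Echinochloa crus-galli and Setaria viridis were sown in upland field soil and covered, then the soil surface was sprayed with water-diluted wettable powder at 100 g active ingredient per 10 ares (100 liters per 10 ares). Plants were grown in a greenhouse and scored on a standard scale on day 21.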

[4] = test system: Echinochloa crus-galli (L.) Beauv. var. crusgall (Ec); assay: Test for herbicidal effect by upland field soil treatment (Test Example 2), Ec
Summary of the method: as §1

[5] = application amount (active ingredient) 100 g/10 a, examined at the 21st day from the treatment, index per Table 40
[6] = 100 g/10 a active ingredient, examined at 21st day

Compound	Herbicidal effect to Ec [1]	Herbicidal effect to Eo [2]	Herbicidal effect to Se [3, 5]	Herbicidal effect to Ec [4, 5]	Herbicidal effect to Se [3, 6]	Herbicidal effect to Ec [4, 6]
CC1C(S(=O)(=O)Cc2c(F)cccc2F)=NOC1(C)C (centres unmarked) [Compound 1-495]	5 (A herbicidal effect or phytotoxicity of 90% or more)	5 (A herbicidal effect or phytotoxicity of 90% or more)	5 (A herbicidal effect or phytotoxicity of 90% or more)	5 (A herbicidal effect or phytotoxicity of 90% or more)		
CC1ON=C(S(=O)(=O)Cc2c(F)cccc2F)C1C (centres unmarked) [Compound 1-496]	5 (A herbicidal effect or phytotoxicity of 90% or more)	5 (A herbicidal effect or phytotoxicity of 90% or more)	4 (A herbicidal effect or phytotoxicity of 70% to less than 90%)	5 (A herbicidal effect or phytotoxicity of 90% or more)		
CC1(C)CC(S(=O)(=O)Cc2ccc(F)c(F)c2)=NO1 [Compound 1-497]	5 (A herbicidal effect or phytotoxicity of 90% or more)	5 (A herbicidal effect or phytotoxicity of 90% or more)	5 (A herbicidal effect or phytotoxicity of 90% or more)	5 (A herbicidal effect or phytotoxicity of 90% or more)		
CCc1cccc(CC)c1CS(=O)(=O)C1=NOC(C)(C)C1 [Compound 1-502]	5 (A herbicidal effect or phytotoxicity of 90% or more)	5 (A herbicidal effect or phytotoxicity of 90% or more)			5 (A herbicidal effect or phytotoxicity of 90% or more)	5 (A herbicidal effect or phytotoxicity of 90% or more)
CC1(C)CC(S(=O)(=O)Cc2cccc(F)c2F)=NO1 [Compound 1-504]	5 (A herbicidal effect or phytotoxicity of 90% or more)	5 (A herbicidal effect or phytotoxicity of 90% or more)			5 (A herbicidal effect or phytotoxicity of 90% or more)	5 (A herbicidal effect or phytotoxicity of 90% or more)
CC1(C)CC(S(=O)(=O)Cc2ccc(F)cc2F)=NO1 [Compound 1-505]	5 (A herbicidal effect or phytotoxicity of 90% or more)	5 (A herbicidal effect or phytotoxicity of 90% or more)			5 (A herbicidal effect or phytotoxicity of 90% or more)	5 (A herbicidal effect or phytotoxicity of 90% or more)
CC1(C)CC(S(=O)(=O)Cc2cc(F)cc(F)c2)=NO1 [Compound 1-506]	4 (A herbicidal effect or phytotoxicity of 70% to less than 90%)	5 (A herbicidal effect or phytotoxicity of 90% or more)			5 (A herbicidal effect or phytotoxicity of 90% or more)	5 (A herbicidal effect or phytotoxicity of 90% or more)
CC1(C)CC(S(=O)(=O)Cc2ccc(F)c(F)c2F)=NO1 [Compound 1-507]	4 (A herbicidal effect or phytotoxicity of 70% to less than 90%)	5 (A herbicidal effect or phytotoxicity of 90% or more)			5 (A herbicidal effect or phytotoxicity of 90% or more)	5 (A herbicidal effect or phytotoxicity of 90% or more)
CC1(C)CC(S(=O)(=O)Cc2cc(F)cc(F)c2F)=NO1 [Compound 1-508]	4 (A herbicidal effect or phytotoxicity of 70% to less than 90%)	5 (A herbicidal effect or phytotoxicity of 90% or more)			5 (A herbicidal effect or phytotoxicity of 90% or more)	5 (A herbicidal effect or phytotoxicity of 90% or more)
CC1(C)CC(S(=O)(=O)Cc2cc(F)c(F)c(F)c2)=NO1 [Compound 1-509]	4 (A herbicidal effect or phytotoxicity of 70% to less than 90%)	5 (A herbicidal effect or phytotoxicity of 90% or more)			5 (A herbicidal effect or phytotoxicity of 90% or more)	5 (A herbicidal effect or phytotoxicity of 90% or more)
CC1(C)CC(S(=O)(=O)Cc2cc(F)c(F)cc2F)=NO1 [Compound 1-510]	4 (A herbicidal effect or phytotoxicity of 70% to less than 90%)	5 (A herbicidal effect or phytotoxicity of 90% or more)			5 (A herbicidal effect or phytotoxicity of 90% or more)	5 (A herbicidal effect or phytotoxicity of 90% or more)
Cc1ccc(CS(=O)(=O)C2=NOC(C)(C)C2)c(C)c1 [Compound 1-511]	5 (A herbicidal effect or phytotoxicity of 90% or more)	5 (A herbicidal effect or phytotoxicity of 90% or more)			5 (A herbicidal effect or phytotoxicity of 90% or more)	5 (A herbicidal effect or phytotoxicity of 90% or more)
Cc1ccc(C)c(CS(=O)(=O)C2=NOC(C)(C)C2)c1 [Compound 1-512]	5 (A herbicidal effect or phytotoxicity of 90% or more)	5 (A herbicidal effect or phytotoxicity of 90% or more)			5 (A herbicidal effect or phytotoxicity of 90% or more)	5 (A herbicidal effect or phytotoxicity of 90% or more)
Cc1ccc(CS(=O)(=O)C2=NOC(C)(C)C2)cc1C [Compound 1-513]	5 (A herbicidal effect or phytotoxicity of 90% or more)	5 (A herbicidal effect or phytotoxicity of 90% or more)			5 (A herbicidal effect or phytotoxicity of 90% or more)	5 (A herbicidal effect or phytotoxicity of 90% or more)
CC1(C)CC(S(=O)(=O)Cc2cc(C(F)(F)F)ccc2F)=NO1 [Compound 1-514]	5 (A herbicidal effect or phytotoxicity of 90% or more)	5 (A herbicidal effect or phytotoxicity of 90% or more)			5 (A herbicidal effect or phytotoxicity of 90% or more)	5 (A herbicidal effect or phytotoxicity of 90% or more)
CC1(C)CC(S(=O)(=O)Cc2cccc(C(F)(F)F)c2F)=NO1 [Compound 1-515]	5 (A herbicidal effect or phytotoxicity of 90% or more)	5 (A herbicidal effect or phytotoxicity of 90% or more)			5 (A herbicidal effect or phytotoxicity of 90% or more)	5 (A herbicidal effect or phytotoxicity of 90% or more)
CC1(C)CC(S(=O)(=O)Cc2ccc(Br)cc2F)=NO1 [Compound 1-516]	5 (A herbicidal effect or phytotoxicity of 90% or more)	5 (A herbicidal effect or phytotoxicity of 90% or more)			5 (A herbicidal effect or phytotoxicity of 90% or more)	5 (A herbicidal effect or phytotoxicity of 90% or more)
CC1(C)CC(S(=O)(=O)Cc2ccccc2S(=O)(=O)C(F)(F)F)=NO1 [Compound 1-517]	5 (A herbicidal effect or phytotoxicity of 90% or more)	5 (A herbicidal effect or phytotoxicity of 90% or more)			5 (A herbicidal effect or phytotoxicity of 90% or more)	5 (A herbicidal effect or phytotoxicity of 90% or more)
CC1(C)CC(S(=O)(=O)Cc2ccccc2I)=NO1 [Compound 1-521]	5 (A herbicidal effect or phytotoxicity of 90% or more)	5 (A herbicidal effect or phytotoxicity of 90% or more)			5 (A herbicidal effect or phytotoxicity of 90% or more)	5 (A herbicidal effect or phytotoxicity of 90% or more)
Cc1cccc(CS(=O)(=O)C2=NOC(C)(C)C2)c1C [Compound 1-522]	5 (A herbicidal effect or phytotoxicity of 90% or more)	5 (A herbicidal effect or phytotoxicity of 90% or more)			5 (A herbicidal effect or phytotoxicity of 90% or more)	5 (A herbicidal effect or phytotoxicity of 90% or more)
COc1cc(CS(=O)(=O)C2=NOC(C)(C)C2)cc(OC)c1 [Compound 1-524]	5 (A herbicidal effect or phytotoxicity of 90% or more)	5 (A herbicidal effect or phytotoxicity of 90% or more)			5 (A herbicidal effect or phytotoxicity of 90% or more)	5 (A herbicidal effect or phytotoxicity of 90% or more)
CCc1cccc(C)c1CS(=O)(=O)C1=NOC(C)(C)C1 [Compound 1-525]	5 (A herbicidal effect or phytotoxicity of 90% or more)	5 (A herbicidal effect or phytotoxicity of 90% or more)			5 (A herbicidal effect or phytotoxicity of 90% or more)	5 (A herbicidal effect or phytotoxicity of 90% or more)
CC1(C)CC(S(=O)(=O)Cc2c(F)cccc2C(F)(F)F)=NO1 [Compound 1-527]	5 (A herbicidal effect or phytotoxicity of 90% or more)	5 (A herbicidal effect or phytotoxicity of 90% or more)			5 (A herbicidal effect or phytotoxicity of 90% or more)	5 (A herbicidal effect or phytotoxicity of 90% or more)
